This note sets out measurements from patent US4631289A, “Useful in radiotherapy of chemotherapy 4-aziridino-1-nitroimidazol-1-yl-2,3-butanediols” (National Research Development Corporation, priority 1982, dated 1986).

Like-named read-outs stand apart in the source and are kept apart here. Some results are limits rather than exact numbers.

Data set [1] deals with irradiated hypoxic V79 mammalian cells. As to the kind of experiment: Sensitisation: concentration for enhancement ratio of 1.6 in irradiated hypoxic V79 cells. Type of data set: cell-based. Particulars: Cricetulus griseus, read-out: C1.6 (concentration required to achieve an enhancement ratio of 1.6). The text has this:
^a Concentration required to achieve an enhancement ratio of 1.6 in
irradiated hypoxic V79 mammalian cells.

The subject of data set [2] is MT tumour. As to the kind of experiment: Radiosensitization: enhancement of radiation treatment in WHT mice bearing MT tumour (Example 2). The format is in vivo. Particulars: administered dose 3.8 mmoles/kg, intraperitoneal, before radiation; tumour implanted subcutaneously. Here is the method:
(§1) In the following Examples, WHT mice in which the MT tumour has been implanted subcutaneously are administered the compound of Example 1 intraperitoneally before treatment with radiation or with the chemotherapeutic agent melphalan. The time before such treatment at which the drug is administered is such that maximum enhancement is effected. The results of treatment with radiation and the chemotherapeutic drug are set out respectively in Tables I and II together with comparison results using misonidazole (MISO) and the compound Ro-03-8799. The asterisks against the results from treatment with the latter compounds indicate that the tumours treated in these cases are intramuscular.

Data set [3] has as its system MT tumour. As to the kind of experiment: Chemosensitization (melphalan): enhancement of melphalan treatment in WHT mice bearing MT tumour (Example 3). Type of data set: in vivo. The note with it: i.p. before melphalan. Here is the method:
as §1

Data set [4] can be described thus: Toxicity, LD50, i.p. in male CRCD1 mice. The note with it: mouse, in vivo, ip, male CRCD1 mice (footnote c). An excerpt: (§2) ^b Drugs administered i.p. to .female. WHT mice.
^c For Compound of Example 1 in .male. CRCD1 mice

A short description of data set [5]: Toxicity, LD50, i.p. in female WHT mice. The note with it: mouse, in vivo, ip.
From the text: as §2

[6] abbreviates: administered dose 0.72 mmoles/kg, * tumours intramuscular.

In the case of `O=[N+]([O-])c1nccn1CC(O)CN1CC1c1ccccc1` (stereo not shown) [Example 8, 1-(2-Nitro-1-imidazolyl)-3-(2-phenyl-1-aziridino)-2-propanol], the EC (enhancement ratio 1.6) in data set [1] (V79, light or radiation study) stood at 300 µM.

A word on the LD50: it is the dose expected to kill half of the subjects tested. Low readings indicate greater toxicity, high ones lower toxicity. On to `O=[N+]([O-])c1nccn1CC(O)CN1CC1` (stereo not shown) [Example 1, 1-(2-Nitro-1-imidazolyl)-3-(1-aziridino)-2-propanol], for which the “Enhancement ratio (Radiosensitization)” value in the data set on MT tumour [2] is given as 1.7. Besides, the “Enhancement ratio (Chemosensitization, melphalan)” value with MT tumour [3] (administered dose 0.08 mmoles/kg, tumour implanted subcutaneously) was found to be 3.0. Besides, the EC (enhancement ratio 1.6) in data set [1] (light or radiation study, irradiated hypoxic V79 mammalian cells) is 100 µM. This compound yielded an LD50 in data set [4] of 610 µmol/kg.

Turning to `O=[N+]([O-])c1nccn1CC(O)C(O)CN1CC1` (stereo not shown) [Example 10, 1-(2-Nitro-1-imidazolyl)-4-(1-aziridino) or substituted aziridino)-2,3-butane-diol], in data set [1] (V79, light or radiation study), the EC (enhancement ratio 1.6) was 130 µM. This compound also registered an LD50 in data set [5] of 410 µmol/kg.

On to `C[C@@H]1[C@H](C)N1CC(O)Cn1ccnc1[N+](=O)[O-]` (relative stereo) [Example 13, 1-(2-Nitro-1-imidazolyl)-3-(2,3-dimethyl-1-aziridino)-2-propanol], for which the EC (enhancement ratio 1.6) in data set [1] (V79, light or radiation study) came out at 80 µM. In data set [5], this compound showed an LD50 of at most 1250 µmol/kg.

For `CC1CN1CC(O)Cn1ccnc1[N+](=O)[O-]` (stereo not shown) [Example 4, 1-(2-Nitro-1-imidazolyl)-3-(2-methyl-1-aziridino)-2-propanol], in data set [1] (V79, light or radiation study), the EC (enhancement ratio 1.6) stood at 80 µM. In data set [5], this compound yielded an LD50 below 580 µmol/kg.

As to `CC1(C)CN1CC(O)Cn1ccnc1[N+](=O)[O-]` (stereo not shown) [Example 7, 1-(2-Nitro-1-imidazolyl)-3-(2,2-dimethyl-1-aziridino)-2-propanol], in data set [1] (V79, light or radiation study), the EC (enhancement ratio 1.6) was 80 µM. The same compound registered an LD50 in data set [5] of 1250 µmol/kg.

Consider `C[C@@H]1[C@@H](C)N1CC(O)Cn1ccnc1[N+](=O)[O-]` (relative stereo) [Example 14, 1-(2-Nitro-1-imidazolyl)-3-(2,3-dimethyl-1-aziridino)-2-propanol], for which, in data set [1] (V79, light or radiation study), the EC (enhancement ratio 1.6) came out at 80 µM.

As for `Cc1ncc([N+](=O)[O-])n1CC(O)CN1CC1` (stereo not shown) [Example 11, 1-(2-methyl-5-nitro-1-imidazolyl)-3-(1-aziridino or substitutedaziridino)-2-propanol], the EC (enhancement ratio 1.6) in data set [1] (V79, light or radiation study) was 300 µM. Besides, the LD50 in data set [5] is 800 µmol/kg.

For the compound `O=[N+]([O-])c1nccn1CC(O)CN1CCCCC1` (stereo not shown) [Example 8799], the “Enhancement ratio (Radiosensitization)” value in the data set with MT tumour [2] is 1.3. In addition, the “Enhancement ratio (Chemosensitization, melphalan)” value is given as 2.2 with MT tumour [3] (setting [6]) and 1.9 with MT tumour [3] (administered dose 0.72 mmoles/kg, tumour implanted subcutaneously).

Regarding `COCC(O)Cn1ccnc1[N+](=O)[O-]` (stereo not shown) [MISO, misonidazole], in the data set on MT tumour [2], the “Enhancement ratio (Radiosensitization)” value is 1.3. For the same compound, the “Enhancement ratio (Chemosensitization, melphalan)” value in the data set with MT tumour [3] (setting [6]) worked out at 1.7.

As for `CCC1CN1CC(O)Cn1ccnc1[N+](=O)[O-]` (stereo not shown) [Example 5, 1-(2-Nitro-1-imidazolyl)-3-(2-ethyl-1-aziridino)-2-propanol], the EC (enhancement ratio 1.6) in data set [1] (V79, light or radiation study) was 130 µM. Further, in data set [5], the LD50 turned out to be 580 µmol/kg.

As for `CC(C)C1CN1CC(O)Cn1ccnc1[N+](=O)[O-]` (stereo not shown) [Example 9, 1-(2-Nitro-1-imidazolyl)-3-(2-isopropyl-1-aziridino)-2-propanol], the EC (enhancement ratio 1.6) in data set [1] (V79, light or radiation study) is 130 µM. The same compound came in with an LD50 in data set [5] of at most 1180 µmol/kg.
